Test results reported in patent US8293751B2, “1,2,3-trisubstituted aryl and heteroaryl derivatives as modulators of metabolism and the prophylaxis and treatment of disorders related thereto such as diabetes and hyperglycemia” (Arena Pharmaceuticals, Inc., priority 2003, dated 2012).
“Also recorded” adds a separate entry of the source.

Tests used:
[1] = target: T1, RUP3 (Homo sapiens, UniProt Q8TDV5); assay: 96-Well Cyclic AMP Membrane Assay for RUP3 (Membrane Cyclase Assay); assay type: biochemical; conditions: RUP3 membranes, cAMP Flashplate
T1 construct: seen in the listing only (N); seen in the listing only (C); expressed in transfected cells
T1 sequence (Q8TDV5 with tags, fused parts or gaps): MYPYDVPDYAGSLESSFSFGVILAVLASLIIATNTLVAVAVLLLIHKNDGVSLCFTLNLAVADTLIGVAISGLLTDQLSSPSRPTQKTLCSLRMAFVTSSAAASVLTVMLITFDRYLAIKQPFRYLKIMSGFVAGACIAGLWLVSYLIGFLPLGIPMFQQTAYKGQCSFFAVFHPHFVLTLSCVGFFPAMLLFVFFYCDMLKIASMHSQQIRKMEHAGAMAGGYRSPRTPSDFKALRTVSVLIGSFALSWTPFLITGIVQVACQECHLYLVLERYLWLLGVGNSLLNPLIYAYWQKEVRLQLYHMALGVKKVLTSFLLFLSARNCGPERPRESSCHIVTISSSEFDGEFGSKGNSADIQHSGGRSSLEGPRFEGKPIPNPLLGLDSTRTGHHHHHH
Method: 96-Well Cyclic AMP Membrane Assay for RUP3
Binding Buffer—filter through […] Nalgene filter and keep in refrigerator. All buffers and membranes should be kept cold (in ice bucket) while performing assay. • 20 mM Hepes, pH7.4 • 1 mM MgCl2 • 100 mM NaCl • 2× Regeneration Buffer (make in binding buffer): • 20 mM Phosphocreatine (1.02 gm/200 ml binding buffer) • 20 units Creatine phosphokinase (4 mg/200 ml) • 20 uM GTP (make up 10.46 mg/ml in binding buffer and add 200 ul/200 ml) • 0.2 mM ATP (22.04 mg/200 ml) • […] IBMX (44.4 mg IBMX dissolved in 1 ml 100% DMSO first and then add the entire amount to 200 ml of buffer).
Regeneration buffer can be aliquotted into 40-45 ml portions (in 50 ml sterile tubes) and kept frozen for up to 2 months. Simply put the tube in a beaker with room temperature water to thaw out the regeneration buffer on the day of the assay. […]
IC50s or EC50s are done in triplicate. […] The membranes are kept in ice all the time, and a polytron (Brinkmann polytron, model #PT-3100) is used (setting 6-7, for 15-20 seconds) to obtain a homogeneous membrane suspension.) Protein concentration is determined by Bradford protein assay kit using instructions given in the kit, using the standard supplied with the kit as a reference. […]

[2] = system: isolated rat islets; assay: Stimulation of insulin secretion in isolated rat islets; assay type: cell-based; conditions: 10 μM concentration, enhancement comparable to 25 nM GLP-1, FIG. 4D
Method: E. Stimulation of Insulin Secretion in Isolated Rat Islets
As with HIT-T15 cells, it is known that stimulation of cAMP in isolated rat islets causes an increase in insulin secretion when the glucose concentration in the culture media is changed from 60 mg/dl to 300 mg/dl. RUP3 is an endogenously expressed GPCR in the insulin-producing cells of rat islets. Thus, RUP3 ligands can also be tested for their ability to stimulate GSIS in rat islet cultures. This assay is performed as follows: • A. Select 75-150 islet equivalents (IEQ) for each assay condition using a dissecting microscope. Incubate overnight in low-glucose culture medium. (Optional.) • B. Divide the islets evenly into triplicate samples of 25-40 islet equivalents per sample. Transfer to 40 μm mesh sterile cell strainers in wells of a 6-well plate with 5 ml of low (60 mg/dl) glucose Krebs-Ringers Buffer (KRB) assay medium. • C. Incubate 30 minutes (1 hour if overnight step skipped) at 37° C. and 5% CO2. Save the supernatants if a positive control for the RIA is desired. • D. Move strainers with islets to new wells with 5 ml/well low glucose KRB. […] Freeze and store at <−20° C. until insulin concentrations can be determined. • I. Insulin determinations are done as above, or by Linco Labs as a custom service, using their rat insulin RIA (Cat. #RI-13K). […]

[3] = system: HIT-T15 cells; assay: Stimulation of insulin secretion in HIT-T15 cells; assay type: cell-based, hamster; conditions: HIT-T15 cells exposed to 15 mM glucose; compared with forskolin; FIG. 4C
Method: D. Stimulation of Insulin Secretion in HIT-T15 Cells
It is known that stimulation of cAMP in HIT-T15 cells causes an increase in insulin secretion when the glucose concentration in the culture media is changed from 3 mM to 15 mM. Thus, RUP3 ligands can also be tested for their ability to stimulate glucose-dependent insulin secretion (GSIS) in HIT-T15 cells. In this assay, 30,000 cells/well in a 12-well plate are incubated in culture media containing 3 mM glucose and no serum for 2 hours. The media is then changed; wells receive media containing either 3 mM or 15 mM glucose, and in both cases the media contains either vehicle (DMSO) or RUP3 ligand at a concentration of interest. Some wells receive media containing 1 uM forskolin as a positive control. All conditions are tested in triplicate. Cells are incubated for 30 minutes, and the amount of insulin secreted into the media is determined by ELISA, using a kit from either Peninsula Laboratories (Cat #ELIS-7536) or Crystal Chem Inc. (Cat #90060).
In the first of these, RUP3 agonists are used to stimulate HIT-T15 cells, which express RUP3 at significant levels, as indicated in the Northern blot shown in FIG. 4A.

[4] = system: HIT-T15 cells; assay: Stimulation of cAMP in HIT-T15 cells; assay type: cell-based, hamster; conditions: compared with adenyl cyclase activator forskolin, FIG. 4B
Method: C. Stimulation of cAMP in HIT-T15 Cells
HIT-T15 (ATCC CRL#1777) is an immortalized hamster insulin-producing cell line. These cells express RUP3 and therefore can be used to assess the ability of RUP3 ligands to stimulate or inhibit cAMP accumulation via its endogenously expressed receptor. In this assay, cells are grown to 80% confluence and then distributed into a 96-well Flashplate (50,000 cells/well) for detection of cAMP via a “cAMP Flashplate Assay” (NEN, Cat #SMP004). Briefly, cells are placed into anti-cAMP antibody-coated wells that contain either vehicle, the test ligand(s) at a concentration of interest, or 1 uM forskolin. The latter is a direct activator of adenylyl cyclase and serves as a positive control for stimulation of cAMP in HIT-T15 cells. All conditions are tested in triplicate. After ail hour incubation to allow for stimulation of cAMP, a Detection Mix containing ^125I-cAMP is added to each well and the plate is allowed to incubate for another 1 hour. The wells are then aspirated to remove unbound ^125I-cAMP. Bound ^125I-cAMP is detected using a Wallac Microbeta Counter. The amount of cAMP in each sample is determined by comparison to a standard curve, obtained by placing known concentrations of cAMP in some wells on the plate. […]

[5] = system: db mice (C57BL/KsOlahsd-Leprdb, diabetic); assay: Acute response of db mice to RUP3 agonist (blood glucose); assay type: in vivo; conditions: male db mice; 1 μg/kg, intraperitoneally; FIG. 5B
Method: B. […] Male db mice (C57BL/KsOlahsd-Leprdb, diabetic, Harlan) at age of 10 weeks were randomly grouped (n=6) to receive vehicle (oral gavage), Compound B70 (60 mg/kg, oral gavage), or Ex-4 (1 μg/kg, intraperitoneally). After compound administration, food was removed and blood glucose levels were determined at indicated times as shown in FIG. 5B. Reduction in blood glucose at each time point was expressed as percentage of original glucose levels, averaged from six animals for each group.

| Molecule | IC50 [1] [nM] | glucose-dependent insulin release [2] | other results |
| --- | --- | --- | --- |
| CCCC1CCN(c2ncnc(Oc3ccc(C(=O)c4ccc(F)cc4)cc3)c2[N+](=O)[O-])CC1 [Compound A124, (4-Fluoro-phenyl)-{4-[5-nitro-6-(4-propyl-piperidin-1-yl)-pyrimidin-4-yloxy]-phenyl}-methanone] | 241 | – | – |
| CCOC(=O)C1CCN(c2ncnc(Oc3ccc(CCC(C)=O)cc3)c2[N+](=O)[O-])CC1 [Compound A51, 1-{5-Nitro-6-[4-(3-oxo-butyl)-phenoxy]-pyrimidin-4-yl}-piperidine-4-carboxylic acid ethyl ester] | – | enhanced glucose-dependent insulin release compared to control | – |
| CS(=O)(=O)c1ccc(Nc2ncnc(N3CCC(Sc4ccccc4)CC3)c2[N+](=O)[O-])cc1 [Compound B84, (4-Methanesulfonyl-phenyl)-[5-nitro-6-(4-phenylsulfanyl-piperidin-1-yl)-pyrimidin-4-yl]-amine] | 50 | – | insulin secretion in HIT cells [3]: stimulates insulin secretion in HIT cells exposed to 15 mM glucose, once again at a level comparable to that seen with the adenyl cyclas activator forskolin; also recorded: stimulates insulin secretion in HIT cells exposed to 15 mM glucose, at a level comparable to that seen with the adenylcyclase activator forskolin; cAMP production in HIT cells [4]: stimulates cAMP production in HIT cells, at a level comparable to that seen with the adenyl cyclase activator forskolin |
| CCOC(=O)C1CCN(c2ncnc(Oc3ccc(C4NC(=O)NC4=O)cc3)c2[N+](=O)[O-])CC1 (stereo not shown) [Compound A48, 1-{6-[4-(2,5-Dioxo-imidazolidin-4-yl)-phenoxy]-5-nitro-pyrimidin-4-yl}-piperidine-4-carboxylic acid ethyl ester] | – | enhanced glucose-dependent insulin release compared to control | – |
| extendin-4 [Ex-4, reference compound] | – | – | blood glucose levels compared to vehicle control [5]: significantly reduces glucose levels compared to vehicle control |
